The record followed here is patent publication US7517874B2 (priority 2007, dated 2009).

A value given as a limit tells only on which side of the number the result lay.

Experiment [1] deals with human CB1 receptor (hCB1) (Homo sapiens, UniProt P21554). The experiment is described as follows: cell-based. The class given is cell-based. As to conditions: for +/− HCB1: agonist or inverse agonist at hCB1. In outline:
(§1)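 Agonism or inverse agonism was assessed as change in intracellular cAMP in CHO-K1 cells expressing human CB1 or rat CB2 (genomic DNA, pcDNA3.1).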

A further experiment addresses T1, rat CB2 receptor (rCB2) (Rattus norvegicus, UniProt Q9QZN9).
T1 sequence (Q9QZN9 1-360): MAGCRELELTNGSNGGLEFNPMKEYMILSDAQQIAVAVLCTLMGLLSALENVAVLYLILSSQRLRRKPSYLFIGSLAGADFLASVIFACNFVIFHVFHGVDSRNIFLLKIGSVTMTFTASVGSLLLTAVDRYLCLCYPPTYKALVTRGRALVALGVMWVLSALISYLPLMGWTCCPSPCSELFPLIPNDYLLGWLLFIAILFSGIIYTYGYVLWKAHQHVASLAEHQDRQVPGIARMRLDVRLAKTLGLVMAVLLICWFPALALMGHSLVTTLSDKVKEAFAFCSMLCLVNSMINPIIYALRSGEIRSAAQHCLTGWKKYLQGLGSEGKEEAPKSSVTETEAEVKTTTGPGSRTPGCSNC
Description: cell-based. As to conditions: for +/− RCB2: agonist or inverse agonist at rCB2. The class given is cell-based. Summed up: as §1

human CB1 receptor (hCB1), sequence (P21554 whole entry): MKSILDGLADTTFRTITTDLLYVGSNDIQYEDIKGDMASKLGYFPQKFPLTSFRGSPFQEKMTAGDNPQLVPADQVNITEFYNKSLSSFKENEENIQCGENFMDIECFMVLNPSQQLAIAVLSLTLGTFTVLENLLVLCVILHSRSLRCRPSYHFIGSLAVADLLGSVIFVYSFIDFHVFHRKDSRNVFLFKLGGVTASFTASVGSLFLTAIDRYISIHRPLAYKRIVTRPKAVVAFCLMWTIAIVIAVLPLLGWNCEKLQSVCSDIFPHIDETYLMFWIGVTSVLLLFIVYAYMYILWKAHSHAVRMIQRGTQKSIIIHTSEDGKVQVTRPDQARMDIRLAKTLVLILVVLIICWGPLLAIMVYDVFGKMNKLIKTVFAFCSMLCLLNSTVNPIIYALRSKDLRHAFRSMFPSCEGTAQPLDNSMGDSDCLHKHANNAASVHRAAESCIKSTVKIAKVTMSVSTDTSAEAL

For orientation: EC50 means the concentration at which the effect is half-maximal. A lower EC50 goes with a more potent agent. For `COC(=O)[C@@H](NC(=O)c1nc(-c2ccccc2)n2c1CNCCC2)C(C)(C)C` [Compound 465, (S)-methyl 3,3-dimethyl-2-(3-phenyl-6,7,8,9-tetrahydro-5H-imidazo[1,5-a][1,4]diazepine-1-carboxamido)butanoate], the EC50 in experiment [1] was > 10 µM. The “+/− RCB2” value on rat CB2 receptor (rCB2) is on record as “+”.

As to `CC12CCC(C1)C(C)(C)C2NC(=O)c1nc(-c2ccccc2)n2c1CN(C(=O)c1ccccc1)CC2` (centres unmarked) [Compound 120, 7-benzoyl-3-phenyl-N-(1,3,3-trimethylbicyclo[2.2.1]heptan-2-yl)-5,6,7,8-tetrahydroimidazo[1,5-a]pyrazine-1-carboxamide], in experiment [1], the EC50 was > 10 µM. At rat CB2 receptor (rCB2), the “+/− RCB2” value was “+”.

With `CNC(=O)[C@@H](NC(=O)c1nc(-c2ccc(C(=O)N(C)C)c(F)c2)n2c1CN(C)CCC2)C(C)(C)C` [Compound 426, (S)-N-(3,3-dimethyl-1-(methylamino)-1-oxobutan-2-yl)-3-(4-(dimethylcarbamoyl)-3-fluorophenyl)-8-methyl-6,7,8,9-tetrahydro-5H-imidazo[1,5-a][1,4]diazepine-1-carboxamide], the 50% effective concentration (EC50) (in experiment [1]; at rat CB2 receptor (rCB2)) was > 10 µM each time.

In the case of `CNC(=O)[C@@H](NC(=O)c1nc(-c2ccccc2)n2c1CN(S(=O)(=O)C1CC1)CC2)C(C)(C)C` [Compound 100, (S)-7-(cyclopropylsulfonyl)-N-(3,3-dimethyl-1-(methylamino)-1-oxobutan-2-yl)-3-phenyl-5,6,7,8-tetrahydroimidazo[1,5-a]pyrazine-1-carboxamide], the half-maximal effective concentration (EC50) in experiment [1] is > 10 µM. Further, the “+/− RCB2” value on rat CB2 receptor (rCB2) is given as “−”.

Turning to `CC(C)C[C@H](NC(=O)c1nc(-c2cc(F)ccc2F)n2c1CN(C)CCC2)C(N)=O` [Compound 567, (S)-N-(1-amino-4-methyl-1-oxopentan-2-yl)-3-(2,5-difluorophenyl)-8-methyl-6,7,8,9-tetrahydro-5H-imidazo[1,5-a][1,4]diazepine-1-carboxamide], in experiment [1], the concentration giving a half-maximal response (EC50) was > 10 µM. Also, at rat CB2 receptor (rCB2), the “+/− RCB2” value is “+”.

In the case of `CN(C)C(=O)[C@@H](NC(=O)c1nc(-c2ccccc2)n2c1CNCC2)C(C)(C)C` [Compound 196, (S)-N-(1-(dimethylamino)-3,3-dimethyl-1-oxobutan-2-yl)-3-phenyl-5,6,7,8-tetrahydroimidazo[1,5-a]pyrazine-1-carboxamide], the EC50 in experiment [1] is > 10 µM. Further, the “+/− RCB2” value on rat CB2 receptor (rCB2) is on record as “−”.

On to `CNC(=O)[C@@H](NC(=O)c1nc(-c2cccc(F)c2)n2c1CN(C)CC2)C(C)(C)C` [Compound 244, (S)-N-(3,3-dimethyl-1-(methylamino)-1-oxobutan-2-yl)-3-(3-fluorophenyl)-7-methyl-5,6,7,8-tetrahydroimidazo[1,5-a]pyrazine-1-carboxamide], for which the concentration for a half-maximal effect (EC50) in experiment [1] is > 10 µM. Besides, the “+/− RCB2” value at rat CB2 receptor (rCB2) is reported as “+”.

With `CNC(=O)[C@@H](NC(=O)c1nc(-c2ccccc2)n2c1CN(c1cnccn1)CC2)C(C)(C)C` [Compound 301, (S)-N-(3,3-dimethyl-1-(methylamino)-1-oxobutan-2-yl)-3-phenyl-7-(pyrazin-2-yl)-5,6,7,8-tetrahydroimidazo[1,5-a]pyrazine-1-carboxamide], the EC50 (in experiment [1]; at rat CB2 receptor (rCB2)) was > 10 µM throughout.

Consider `Cc1noc([C@@H](NC(=O)c2nc(-c3ccccc3)n3c2CN(C(C)C)CCC3)C(C)(C)C)n1` [Compound 525, (S)-N-(2,2-dimethyl-1-(3-methyl-1,2,4-oxadiazol-5-yl)propyl)-8-isopropyl-3-phenyl-6,7,8,9-tetrahydro-5H-imidazo[1,5-a][1,4]diazepine-1-carboxamide], for which the 50% effective concentration (EC50) in experiment [1] is > 10 µM. Further, the “+/− RCB2” value on rat CB2 receptor (rCB2) is “−”.

Take `C[C@H](NC(=O)c1nc(-c2ccccc2)n2c1CNCC2)c1ccccc1` [Compound 40, (S)-3-phenyl-N-(1-phenylethyl)-5,6,7,8-tetrahydroimidazo[1,5-a]pyrazine-1-carboxamide]: the EC50 in experiment [1] is > 10 µM. Also, the “+/− RCB2” value on rat CB2 receptor (rCB2) is reported as “+”.

With `CCN1CCn2c(-c3ccccc3)nc(C(=O)N[C@H](C(=O)NC)C(C)(C)C)c2C1` [Compound 149, (S)-N-(3,3-dimethyl-1-(methyalmino)-1-oxobutan-2-yl)-7-ethyl-3-phenyl-5,6,7,8-tetrahydroimidazo[1,5-a]pyrazine-1-carboxamide], the EC50 in experiment [1] was > 10 µM. Further, at rat CB2 receptor (rCB2), the “+/− RCB2” value was “−”.

For the compound `CNC(=O)[C@@H](NC(=O)c1nc(-c2cc(C(F)(F)F)cc(C(F)(F)F)c2)n2c1CN(C)CCC2)C(C)(C)C` [Compound 599, (S)-3-(3,5-bis(trifluoromethyl)phenyl)-N-(3,3-dimethyl-1-(methylamino)-1-oxobutan-2-yl)-8-methyl-6,7,8,9-tetrahydro-5H-imidazo[1,5-a][1,4]diazepine-1-carboxamide], the EC50 (in experiment [1]; on rat CB2 receptor (rCB2)) was > 10 µM each time.

Regarding `CNC(=O)[C@@H](NC(=O)c1nc(-c2ccccc2)n2c1CN(C(=O)OC)CC2)C(C)(C)C` [Compound 180, (S)-methyl 1-(3,3-dimethyl-1-(methylamino)-1-oxobutan-2-ylcarbamoyl)-3-phenyl-5,6-dihydroimidazo[1,5-a]pyrazine-7(8H)-carboxylate], the concentration giving a half-maximal response (EC50) in experiment [1] is > 10 µM. The “+/− RCB2” value at rat CB2 receptor (rCB2) is given as “−”.

Regarding `CN1CCCn2c(-c3cc(F)c(F)cc3F)nc(C(=O)N[C@@H](CC(C)(C)C)C(N)=O)c2C1` [Compound 590, (S)-N-(1-amino-4,4-dimethyl-1-oxopentan-2-yl)-8-methyl-3-(2,4,5-trifluorophenyl)-6,7,8,9-tetrahydro-5H-imidazo[1,5-a][1,4]diazepine-1-carboxamide], the “+/− HCB1” value in experiment [1] was “+”. Also, on rat CB2 receptor (rCB2), the “+/− RCB2” value is recorded as “+”.

On to `CCS(=O)(=O)N1CCCn2c(-c3ccccc3)nc(C(=O)N[C@H](C(=O)NC)C(C)(C)C)c2C1` [Compound 461, (S)-N-(3,3-dimethyl-1-(methylamino)-1-oxobutan-2-yl)-8-(ethylsulfonyl)-3-phenyl-6,7,8,9-tetrahydro-5H-imidazo[1,5-a][1,4]diazepine-1-carboxamide], for which the half-maximal effective concentration (EC50) in experiment [1] is > 10 µM. The “+/− RCB2” value on rat CB2 receptor (rCB2) was “−”.

Regarding `CNC(=O)[C@@H](NC(=O)c1nc(-c2ccoc2)n2c1CNCC2)C(C)(C)C` [Compound 12, (S)-N-(3,3-dimethyl-1-(methylamino)-1-oxobutan-2-yl)-3-(furan-3-yl)-5,6,7,8-tetrahydroimidazo[1,5-a]pyrazine-1-carboxamide], the EC50 in experiment [1] is > 10 µM. At rat CB2 receptor (rCB2), the “+/− RCB2” value was “−”.

With `CN1CCn2c(-c3ccccc3)nc(C(=O)N[C@H](C(N)=O)C(C)(C)C)c2C1` [Compound 285, (S)-N-(1-amino-3,3-dimethyl-1-oxobutan-2-yl)-7-methyl-3-phenyl-5,6,7,8-tetrahydroimidazo[1,5-a]pyrazine-1-carboxamide], the EC50 (in experiment [1]; at rat CB2 receptor (rCB2)) was > 10 µM throughout.

With `CNC(=O)[C@@H](NC(=O)c1nc(-c2cccc(S(C)(=O)=O)c2)n2c1CN(C)CCC2)C(C)(C)C` [Compound 409], the EC50 in experiment [1] is > 10 µM. Moreover, at rat CB2 receptor (rCB2), the “+/− RCB2” value is “−”.

Turning to `CN1CCCn2c(-c3ccc(F)c(Cl)c3)nc(C(=O)N[C@H](C(N)=O)C(C)(C)C)c2C1` [Compound 576, (S)-N-(1-amino-3,3-dimethyl-1-oxobutan-2-yl)-3-(3-chloro-4-fluorophenyl)-8-methyl-6,7,8,9-tetrahydro-5H-imidazo[1,5-a][1,4]diazepine-1-carboxamide], the “+/− HCB1” value in experiment [1] is reported as “+”. For the same compound, at rat CB2 receptor (rCB2), the “+/− RCB2” value is reported as “+”.
